Series [1] in a line: Solubility in water of screened salts (Table 2). An excerpt: (§1) In order to achieve the above water solubility goal, the inventors have conducted studies from various aspects, e.g., crystal forms of existing salts, preparation excipients, formation of new salt types, etc., hoping to find a feasible means that can improve water solubility while ensuring better druggability.
A short description of series [2]: Hygroscopicity of screened salts (Table 2). Type of series: physicochemical.
Source text: as §1

For series [3] the following is noted: prior art information; cited from earlier work.
The conditions of series [4]: cited from earlier work.
Series [5] in a line: Activity of degradation impurity relative to compound of formula (I). The note with it: fraction of parent activity. On the procedure:
[drawing 4] the impurity having an activity which is 1/300 of that of the compound of formula (I). […] Whether the stability is good or not is also a key factor in selecting the crystal form of the compound. Accordingly, it is preferred in the present invention that the hydrobromide of the compound of the formula (I) is present in the form of α crystal form. […] In the differential scanning calorimetry of the α crystal form, there is a melting endothermic peak at 170° C.±2° C. Therefore, in the present invention, the structure of the α crystal form is defined by the above-mentioned powder diffraction characteristic peaks and DSC melting peak, and on the basis of this definition, the α crystal form can be clearly distinguished from other three crystal forms.

The conditions of series [6]: statement of CN103221414B / CN201280003321.6, cited from earlier work.
The mark [7] stands for this setting: 40 degrees, RH75% closed, 4 weeks.
Setting [8] is: 40 degrees, RH75% closed and 60 degrees open, 34 days.

Molecules are shown by their SMILES. In brackets after ≈: the same amount, converted by molar mass. Several values for one entry are separate records, joined by “and”; a condition that tells them apart may be missing. Equal entries are not always repeated. Where two headings read alike, the source gives them in different places. Some results are limits rather than exact numbers.

`O=S(=O)(O)c1cccc2c(S(=O)(=O)O)cccc12` [1,5-naphthalene disulfonate]: in series [1], the “Solubility in water” value is 1 mg/mL. In addition, in series [2], the “Hygroscopicity (%)” value came to 15.9%.

As to `COC(=O)CC[C@@H]1N=C(c2ccccn2)c2cc(Br)ccc2-n2c(C)cnc21.O=S(=O)(O)c1ccccc1` [Remimazolam besylate], the Solubility in water in series [3] was 8.3 mg/mL. In addition, the degradation in series [4] (setting [7]) is recorded as 0.5%.

On to `COC(=O)CC[C@@H]1N=C(c2ccccn2)c2cc(Br)ccc2-n2c(C)cnc21.O=S(=O)(O)O` [(bi)sulfate form 1], for which the “Hygroscopicity (%)” value in series [2] came out at 0.1%.

As to `COC(=O)CC[C@@H]1N=C(c2ccccn2)c2cc(Br)ccc2-n2c(C)cnc21` [Remimazolam esylate], in series [3], the Solubility in water is 7.8 mg/mL (≈ 17.8 mM). Also, the degradation in series [4] (setting [7]) is recorded as 0.2%.

As for `COC(=O)CC[C@@H]1N=C(c2ccccn2)c2cc(Br)ccc2-n2c(C)cnc21` [Remimazolam, methyl 3-[(4s)-8-bromo-1-methyl-6-(2-pyridyl)-4H-imidazol[1,2-a][1,4]benzodiazepine-4-yl] propionate], the Solubility in water result in series [3] is on record as “Almost insoluble in water”. In addition, the “Solubility in water (mg/mL)” value in series [1] was “almost”. Moreover, the “Hygroscopicity (%)” value in series [2] (listed as Free base) was determined as 1.7%. Besides, in series [4] (setting [8]), the appearance change result is “yellowing at 40 degrees, RH75% closed and 60 degrees”; the degradation is 1.5-8%. Further, the stability of sample result in series [4] (40° C./75% relative humidity (open), reported in CN101501019) was “deliquescent, discolored, and significantly reduced in content”.

As for `COC(=O)CC[C@@H]1N=C(c2ccccn2)c2cc(Br)ccc2-n2c(C)cnc21` [crystal form 1], the “Solubility in water” value in series [1] is given as over 100 mg/mL. Also, in series [2] (listed as Hydrobromide crystal form 1), the “Hygroscopicity (%)” value came to 4.6%.

For `COC(=O)CC[C@@H]1N=C(c2ccccn2)c2cc(Br)ccc2-n2c(C)cnc21.O=S(=O)(O)O` [(bi)sulfate form 2], the “Solubility in water” value in series [1] is recorded as over 100 mg/mL. Moreover, in series [2], the “Hygroscopicity (%)” value amounted to 24.9%.

`Cc1cnc2n1-c1ccc(Br)cc1C(c1ccccn1)=N[C@H]2CCC(=O)O`: the “activity relative to that of the compound of formula (I)” value in series [5] is 1/300.

Turning to `COC(=O)CC[C@@H]1N=C(c2ccccn2)c2cc(Br)ccc2-n2c(C)cnc21` [crystal form 2], the “Solubility in water” value in series [1] is over 100 mg/mL.

In the case of `COC(=O)CC[C@@H]1N=C(c2ccccn2)c2cc(Br)ccc2-n2c(C)cnc21.Cl` [Hydrochloride], the “Solubility in water” value in series [1] is on record as over 100 mg/mL. In series [2], the “Hygroscopicity (%)” value turned out to be 2.8%.

Take `COC(=O)CC[C@@H]1N=C(c2ccccn2)c2cc(Br)ccc2-n2c(C)cnc21` [crystal form 3]: the “Solubility in water” value in series [1] is over 100 mg/mL. Moreover, in series [2] (listed as Hydrobromide crystal form 3), the “Hygroscopicity (%)” value was 5%.

For the compound `COC(=O)CC[C@@H]1N=C(c2ccccn2)c2cc(Br)ccc2-n2c(C)cnc21.Cc1ccc(S(=O)(=O)O)cc1` [Remimazolam tosylate], the Solubility in water in series [3] is ~10 mg/mL and ~11 mg/mL. Also, the figures for the “toxicity compared with besylate / benzene sulfonic acid” value in series [6] and in series [6] (listed as tosylate of the compound of the formula (I)) were “less toxic than benzene sulfonic acid” and “less toxic than besylate”, respectively.

Take `COC(=O)CC[C@@H]1N=C(c2ccccn2)c2cc(Br)ccc2-n2c(C)cnc21` [α crystal form]: the “Solubility in water” value in series [1] is listed as over 100 mg/mL. The “Hygroscopicity (%)” value in series [2] (listed as Hydrobromide crystal form α) came to 2.5%.

Consider `COC(=O)CC[C@@H]1N=C(c2ccccn2)c2cc(Br)ccc2-n2c(C)cnc21`, for which the solubility – broadly, the concentration that dissolves in the medium under given conditions – in series [1] (water) is over 100 mg/mL.

The record behind these values is patent US10618904B2 (priority 2016, dated 2020).
